Counter-ions that a name gives are not always drawn. Like-named read-outs stand apart in the source and are kept apart here.
Legend:
[1] = cited from earlier work
[2] = In vitro diffusion studies with vertical Franz diffusion cells across untreated and microneedle-treated skin; type: in vitro ADME, pig; settings: for Transdermal flux, Microneedle: 500 μm microneedle roller-treated porcine ear skin; for Transdermal flux, Microneedle / Transdermal flux, Passive: 12 h, ± SD, n = 6; for Transdermal flux, Passive: untreated porcine ear skin; for Statistical significance of difference in flux, untreated versus microneedle-treated skin: porcine skin, carbamazepine as 20% and 30% ethanol solutions, p < 0.05 considered significant
Description: Pig ears were purchased from Pel-Freez Arkansas LLC (Rogers, AR, USA). Upon arrival, ears were shaved with an electric hair clipper. Full-thickness skins were obtained by using a scalpel to remove subcutaneous fat from ear cartilage. An electric dermatome (Nouvag®, Goldach, Switzerland) was used to prepare split-thickness skins. The thickness of the skin samples was determined with the Digimatic micrometer (Mitutoyo, Tokyo, Japan). Skin membranes were wrapped in aluminum foil and stored at -20 °C until ready for use. Experiments were approved by the Institutional Animal Care and Use Committee (IACUC) and Institutional Biosafety Committee (IBC) of Touro University, Mare Island-Vallejo, CA, USA. Microchannels were created on porcine skins using solid microneedle rollers and skin samples were then clamped to the diffusion cells. The roller was applied to the pig ear skin 15 times (five times in the vertical, horizontal and diagonal directions). The roller was applied with a force of 5 kg (measured with a weighing balance) for approximately 1 min per application. Three microneedle-treated split-thickness skin (STS) samples were used for the experiment while three untreated skin samples served as controls. […] The drug was placed on porcine skin. The pig skin was sandwiched between the donor and receptor compartments of Franz diffusion cells. The donor compartment and covered with parafilm and aluminum foil to reduce evaporation. The sampling ports were also sealed. […] Extractions were stored in 2 mL amber vials from Agilent Technologies (Agilent, Santa Clara, CA, USA) and stored at -8 °C until shipment to the University of Idaho for analysis. Receptor chambers were replenished after each extraction with 1 mL of fresh, pre-warmed PBS maintained at 37 °C. We carried out in vitro diffusion studies with six vertical Franz Diffusion cells (PermeGear, Hellertown, PA, USA). Each cell has donor compartments and receptor compartments. In each cell, there is a magnetic stirrer, sampling port, and a water jacket maintained at a 37 °C model human body temperature. The receptor compartment has a diffusion area of 1.77 cm^2 and the volume is 12 mL. The receptor compartment was filled with PBS, and we utilized high-vacuum grease (Dow Corning, Midland, MA, USA) and a metal clamp to prevent loss of the drug solution through lateral diffusion. HPLC analysis was performed using an Agilent 1200 Series HPLC system with a diode array detection (DAD) system coupled to an Agilent […] TOF-MS system equipped with an ESI source (Agilent, Santa Clara, CA, USA). […] The injection volume was 5 μL. The mobile phase comprised of 0.1% formic acid in water (solvent A) and 0.1% formic acid in methanol (solvent B). We first used a linear gradient from 15% to 95% B in 7 min, and then isocratic elution was carried out at 95% B for 2 min. The final equilibration was conducted at 15% B for 5 min. We diverted the flow from the mass spectrometer for the first 3 min of the analysis, in order to prevent MS contamination and ion suppression. The flow rate was 0.3 mL·min^-1. The average cumulative amount of drug permeation through porcine skin was plotted as a function of time. Steady-state flux was calculated from the linear portion of the average cumulative amount versus time curve. Six replicates were utilized for each drug. […] (1) […] Statistical analysis was performed using GraphPad Prism 7 (GraphPad Software, Inc., La Jolla, CA, USA). The Mann-Whitney Rank Sum test was carried out to determine statistical significance. […] The average of replicate measurements (n = 6) with corresponding standard deviation was used to plot the graphs.

[3] = cited from earlier work; remark: listed apart in the source
[4] = cited from earlier work; remark: listed apart in the source
[5] = parameters: method as in PMID 23454133; settings: after application of nanostructured lipid carriers; cited from earlier work
[6] = carbamazepine 1 mg/mL in 20% ethanol/PBS, listed as Carbamazepine in 20% ethanol
[7] = carbamazepine 1 mg/mL in 30% ethanol/PBS
[8] = tiagabine hydrochloride 5 mg/mL in PBS

| Compound | Partition coefficient [1] | Transdermal flux, Microneedle [2, 6] | Transdermal flux, Passive [2, 6] | Transdermal flux, Microneedle [2, 7] | Transdermal flux, Passive [2, 7] | Statistical significance of difference in flux, untreated versus microneedle-treated skin [2] | Aqueous solubility ([3]; at 32 °C in phosphate buffer saline of pH 7.4) | Clearance [4] | Excreted in urine unchanged [4] | Transdermal flux enhancement [5] | Partition coefficient ([1]; tiagabine hydrochloride) | Transdermal flux, Microneedle [2, 8] | Transdermal flux, Passive [2, 8] | Flux Increase ([2]; tiagabine hydrochloride in PBS, microneedle versus passive) | Aqueous solubility ([3]; tiagabine hydrochloride) | Blood–brain barrier passage ([4]; after drug administration) | Unchanged when excreted as urine [4] | Volume of distribution [4] |
| --- | --- | --- | --- | --- | --- | --- | --- | --- | --- | --- | --- | --- | --- | --- | --- | --- | --- | --- |
| NC(=O)N1c2ccccc2C=Cc2ccccc21 [Carbamazepine, carbamazepine] | 2.7 ± 0.3 | 10.85 ± 0.11 µg/cm^2/h | 7.85 ± 0.60 µg/cm^2/h | 36.73 ± 1.83 µg/cm^2/h | 30.74 ± 1.32 µg/cm^2/h | not statistically significant | 440.6 ± 20.6 µg/mL | 1.87 ± 0.245 mL/min/kg | 1% | – | – | – | – | – | – | – | – | – |
| Cc1cc2c(s1)Nc1ccccc1N=C2N1CCN(C)CC1 [olanzapine] | – | – | – | – | – | – | – | – | – | did not observe significant transdermal flux enhancement | – | – | – | – | – | – | – | – |
| Cc1ccsc1C(=CCCN1CCC[C@@H](C(=O)O)C1)c1sccc1C [Tiagabine hydrochloride, tiagabine hydrochloride] | – | – | – | – | – | statistically significant | – | – | – | – | 2.6 | 86.42 ± 25.66 µg/cm^2/h | 12.83 ± 6.30 µg/cm^2/h | 6.74 fold | 10000 µg/mL | readily cross the blood–brain barrier | less than 1% | 1 L/kg |
